Laboratory results published in patent USRE46228E1, “Pigmentation-regulating compounds” (LIPOTEC, S.A., priority 2007, dated 2016).

What was measured:
mushroom tyrosinase = test: Activity assay on the action of mushroom tyrosinase in vitro (L-Dopa substrate, melanin read at 492 nm); assay type: biochemical; conditions: melanin formed normalized to control sample (100), 10 min at 37° C.
Experimental: The assay is performed in 96 well plates and the samples are performed in triplicate. The control sample contains 80 μL of buffer (150 mM HEPES), 10 μL of mushroom tyrosinase of 10 μg/μL and 10 μL of 10 mM L-Dopa substrate. […] The samples thus prepared are incubated at 37° C. for 10 minutes. Then the plate containing the samples is cooled for 5 minutes on ice to stop the enzymatic reaction. To quantify the melanin produced it is measured in the plate reader at a length of 492 nm.

[1] = target: T1, endogenous tyrosinase extracted from human melanocytes (Homo sapiens, UniProt P14679); test: Activity assay on endogenous tyrosinase extracted from human melanocytes (L-Dopa substrate, absorbance 475 nm); assay type: biochemical; conditions: 1 mM compound; 30 min incubation with enzyme; one hour after adding L-Dopa; relative to control (100)
T1 construct: The endogenous tyrosine of the human melanocytes seeded at a confluence of 95% is extracted; endogenous in cells; host or cells: human melanocytes (cultured; extract used)
T1 sequence (P14679 19-529): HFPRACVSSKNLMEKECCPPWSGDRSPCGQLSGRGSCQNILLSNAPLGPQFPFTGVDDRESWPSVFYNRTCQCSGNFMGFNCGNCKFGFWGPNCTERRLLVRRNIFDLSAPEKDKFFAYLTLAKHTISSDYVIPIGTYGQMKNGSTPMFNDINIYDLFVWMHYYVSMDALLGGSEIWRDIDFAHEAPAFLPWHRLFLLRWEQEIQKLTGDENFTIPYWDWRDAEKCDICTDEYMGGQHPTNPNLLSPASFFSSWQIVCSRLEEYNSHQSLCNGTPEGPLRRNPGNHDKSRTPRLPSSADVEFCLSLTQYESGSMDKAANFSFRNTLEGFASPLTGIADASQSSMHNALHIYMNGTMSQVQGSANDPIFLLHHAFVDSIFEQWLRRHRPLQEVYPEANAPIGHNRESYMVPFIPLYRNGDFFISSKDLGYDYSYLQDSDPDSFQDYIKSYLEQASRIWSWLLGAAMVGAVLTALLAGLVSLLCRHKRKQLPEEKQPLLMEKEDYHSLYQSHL
Experimental: The human melanocytes are cultured in DMEM medium supplemented with 10% FBS, 1% penicillin/streptomycin and 100 nM PMA. […] The endogenous […] of the human melanocytes seeded at a confluence of 95% is extracted. The assay is performed after extracting and quantifying the enzymatic content. […] To check the enzymatic activity after the treatment, the synthetic L-Dopa (10 mM) substrate is added, measuring absorbance at a wavelength of 475 nm one hour after having added L-Dopa. This measurement allows evaluating the melanin content produced.

human keratinocytes = test: Photoprotecting efficacy in human keratinocyte cultures (solar simulation irradiation, Neutral Red viability); assay type: cell-based; conditions: 150 μg/mL
Experimental: The human keratinocytes were maintained in culture for 24 hours in 96 well plates to form monolayers and the cells were pre-incubated in the dark with 150 μg/mL of 7-methoxy-6-palmitoyl-2,2-dimethylchromane or saline phosphate buffer (control) for one hour at 37° C. and humidified air with 5% CO2. The cells were then irradiated with a solar simulation lamp with an energy of 37 J/cm^2 at room temperature for 150 minutes. A control plate was maintained in the dark for the same time at room temperature. The medium of the cells was replaced after the irradiation period with fresh medium and the cells were incubated for 24 additional hours. The cell viability was determined by means of the Neutral Red dye, measuring the optical density at 540 nm in a spectrophotometer.
The photoprotecting efficacy was determined by comparing the viability obtained in the cells treated with 7-methoxy-6-palmitoyl-2,2-dimethylchromane in relation to the response of the irradiated and non-irradiated control cells.

human melanocytes = test: Depigmenting efficacy in human melanocyte cultures (microscopy count of melanin-containing cells); assay type: cell-based; conditions: 0.1 mM compound, 5 days, fresh medium daily; normalized to control sample (0)
Experimental: The melanin content was is seen directly by means of microscopy using a 40 magnification lens. The depigmenting efficacy was is determined by counting the number of cells containing melanin and the total number of cells, and the obtained results were are normalized in relation to the whitening efficacy of a control sample.

Row | % MELANIN (mushroom tyrosinase; 1 mM compound) | % MELANIN [1] | % MELANIN (mushroom tyrosinase; 0.1 mM compound) | SMILES | PHOTOPROTECTTNG EFFICACY (human keratinocytes; viability of treated cells compared with irradiated and non-irradiated control cells) | viability at 150 µg/mL (human keratinocytes; Homo sapiens, Keratinocyte, light or radiation study, 1 h pre-incubation, irradiated 37 J/cm^2 for 150 min, 24 h later, non-irradiated control 100%, irradiated control 13.8%, read-out: CELL VIABILITY) | % DEPIGMENTING EFFICACY (human melanocytes)
1 | 63.0% | 57.0% | – | CCCCCCCCCCCCCCCC(=O)c1cc2c(cc1OC)OC(C)(C)CC2 [7-methoxy-6-palmitoyl-2,2-dimethylchromane] | 254.9% | 49.1% | 45.9%
2 | 96.6% | 79.8% | – | COc1cc2c(cc1O)CCC(C)(C)O2 [Lipochroman-6, 6-hydroxy-7-methoxy-2,2-dimethylchromane, reference compound] | – | – | –
3 | – | – | 44.5% | O=c1cc(CO)occ1O [Kojic acid, reference compound] | – | – | 30.2%
